Holding throughout (format): cell-based, human
The test system of one series is VentX. As to the kind of experiment: VentX expression during cytokine-induced monocyte to macrophage differentiation (RT-PCR, western blot). The settings on record: monocytes cultured with cytokine at 100 ng/ml (FIG. 1B).
In a further series the test system is primary monocytes. As to the kind of experiment: Monocyte to macrophage differentiation after siRNA transfection, surface markers by FACS. The settings on record: monocytes, 100 ng/mL M-CSF, 4 days after transfection (FIG. 12). Here is the method: (A) knockdown of VentX expression in primary monocytes by RNA interference. Monocytes were transfected with siRNA against GFP or VentX through electroporation. VentX mRNA levels were determined by real time PCR at 3 days after transfection (left); VentX protein level was determined by western blotting at 4 days after transfection (right). (B) Effects of VentX knockdown on macrophage morphogenesis during M-CSF induced differentiation. Monocytes were transfected with either siGFP or siVentX and subsequently exposed to 100 ng/mL M-CSF. […] Magnification of photographs, ×200. Note: a portion of cells lost their original morphology during Wright-Giemsa staining procedure. (C) Effects of VentX knockdown on macrophage surface expression of CD71. […] Filled blue histogram represents the isotope control staining; red histogram represents monocytes transfected with siGFP; green histogram represents monocytes transfected with siVentX. (D) Bar graphs show mean+SD of 6 different experiments in (C). Paired t test was used to reveal the statistical significance. **p<0.01.
(A) Left panel: Flow cytometry analysis of indicated surface markers in monocytes transfected with siGFP or siVentX, respectively; right panel: bar graphs show the mean+SD of at least three separate experiments. *p<0.05; **p<0.01. (B) Effects of VentX knockdown on macrophage viability. Monocytes were transfected with either siGFP or siVentX and subsequently exposed to 100 ng/mL M-CSF for 3 days. Cells were then harvested and stained with PI and Annexin V and analyzed by flow cytometry. (C) Effects of VentX knockdown on phagocytosis. Monocytes were transfected with siGFP or siVentX. Phagocytosis assays were carried out as described in materials and methods. […]
Surface expression of CD71 was determined by FACS analysis at 4 days after siRNA transfection. […]
Peripheral blood mononuclear cells (PBMC) from healthy adult donors at Children's Hospital Boston were isolated by Ficoll density gradient centrifugation. […] The purity of freshly isolated CD14^+ monocytes was more than 95% as analyzed by flow cytometry. […]
(A flow cytometer gives signals particle by particle.)

In series [1] the test system is cytokine mRNA expression in macrophages. Kind of series: Effects of VentX knockdown on cytokine mRNA expression in macrophages (real-time PCR). More on the design: unit not given here. The settings on record: macrophages transfected with siRNA; classical activation by LPS plus IFN-γ. Here is the method:
Macrophages were generated through incubation of freshly isolated monocytes with 100 ng/mL M-CSF for 4 days. These macrophages were then transfected with siGFP or siVentX, respectively, and further cultured in RPMI 1640 medium for additional 3 days. Thereafter, cells were exposed to 1 μg/mL LPS plus 20 ng/mL γ-IFN for 6 hours. (A) Surface staining of CD40, CD80, CD86 and HLA-DR and intracellular staining of TNF-α and IL1-β were analyzed by flow cytometry. (B) Secreted TNF-α, IL1-β and IL12p70 from culture supernatants were determined with ELISA kits. (C) Reactive oxygen species (ROS) from siGFP or siVentX transfected macrophages were analyzed with fluorescence microscope (left) and flow cytometry (middle). […] (D) Nitrate level from siGFP and siVentX transfected macrophages. Data represent mean+SD of three different experiments. (E) Phagocytosis of siGFP and siVentX transfected macrophage. Red histogram represents transfection with siGFP; green histogram represents transfection with siVentX. Left panel: cells were incubated on ice; right panel: cells were incubated at 37° C. (F) Effects of VentX knockdown on mixed lymphocyte reaction. Irradiated macrophages that had been transfected with siGFP or siVentX were utilized to stimulate allogenic naïve CD4 T cells proliferation. The proliferation rates were represented by counts per minute (CPM). […] Statistically significant difference (p<0.05) was observed when 4×10^2 or 2×10^3 cells were added.
(Martinez, et al. 2008 Front Biosci 13:453-461; Mosser, et al. 2008 Nat Rev Immunol 8:958-969.) To investigate whether VentX is required for classical activation of macrophages, a loss-of-function approach by knockdown of VentX was used.
Human primary monocytes were transfected using the Human Monocyte Nucleofector Kit (Lonza) according to the manufacturer's instructions. Briefly, 5×10^6monocytes were resuspended into 100 μl nucleofector solution with 0.5 nmol of either VentX siRNA (forward: 5′-[…]-3′ (SEQ ID NO:4); reverse: 5′-[…]-3′ (SEQ ID NO:5)) or non-effective GFP siRNA (forward: 5′-[…]-3′ (SEQ ID NO:6); 5′-reverse: […]-3′ (SEQ ID NO:7)) before electroporation with nucleofector II Device (Lonza). Cells were then immediately removed from the device and incubated overnight with 1 ml pre-warmed Human Monocyte Nucleofector Medium containing 2 mM glutamine and 10% FBS. Cells were then resuspended into complete RPMI medium and treated with appropriate cytokines to induce differentiation into macrophages. Similarly, macrophages derived from monocytes were transfected with Human Macrophage Nucleofector Kit (Lonza) following the manufacturer's instructions.
Total RNA was isolated by the TRIzol reagent, and an equal amount of RNA was used for first-strand cDNA synthesis with SuperScript III First-Strand Synthesis System (Invitrogen) according to the manufacturer's protocol. To amplify VentX cDNA with conventional PCR, AccuPrime™ Taq DNA polymerase system (Invitrogen) was used following the manufacturer's instructions. PCR products were separated on 2% agarose gels and stained with ethidium bromide. GAPDH was used as an internal control. Quantitative measurement of VentX and cytokines cDNA were performed with SYBR Green on a LightCycler® (480 Real-Time PCR System; Roche). The primers used are listed in the Sequence Listing (SEQ ID NOs: 24-109).

The record followed here is US10066272B2, “Human homeobox gene ventx and macrophage terminal differentiation and activation, compositions and methods thereof” (priority 2011, dated 2018).

As for “GM-CSF: granulocyte macrophage colony-stimulating factor, purchased from PeproTech”, the “VentX expression during monocyte to macrophage differentiation” value with VentX is recorded as “up-regulated”.

As for “VentX siRNA-2: second siRNA sequence against VentX, 5′-UCUACUCAACGUCUUCUGGCCUUGCCAAU-3′ (SEQ ID NO:3) (listed as RNA, chemistry not given here)”, in the series with primary monocytes, the “surface expression of CD71 and other markers” value is listed as “down-regulated”.

As for “siGFP: non-effective GFP siRNA, forward 5′-UGACCACCCUGACCUACGGCGUGCAGUGC-3′ (SEQ ID NO:6), reverse SEQ ID NO:7 (antisense GCACUGCACGCCGUAGGUCAGGGUGGUCA; listed as RNA, chemistry not given here) [reference compound]”, in series [1], the “IL1-β cytokine mRNA expression” value is 51.08 ± 3.2, the “IL6 cytokine mRNA expression” value was 3.40 ± 0.21, the “IL8 cytokine mRNA expression” value worked out at 471 ± 10.2 and the “IL12p35 cytokine mRNA expression” value amounted to 1.77 ± 0.21. Further, in series [1], the “IL12p40 cytokine mRNA expression” value amounted to 0.52 ± 0.02, the “M-SCSF cytokine mRNA expression” value is 0.40 ± 0.01 and the “TNF-α cytokine mRNA expression” value is reported as 0.46 ± 0.04.

B1: M-CSF: macrophage colony-stimulating factor, purchased from PeproTech (protein, UniProt P09603 33-554, looked up)
Macrophage colony-stimulating …: EEVSEYCSHMIGSGHLQSLQRLIDSQMETSCQITFEFVDQEQLKDPVCYLKKAFLLVQDIMEDTMRFRDNTPNAIAIVQLQELSLRLKSCFTKDYEEHDKACVRTFYETPLQLLEKVKNVFNETKNLLDKDWNIFSKNCNNSFAECSSQDVVTKPDCNCLYPKAIPSSDPASVSPHQPLAPSMAPVAGLTWEDSEGTEGSSLLPGEQPLHTVDPGSAKQRPPRSTCQSFEPPETPVVKDSTIGGSPQPRPSVGAFNPGMEDILDSAMGTNWVPEEASGEASEIPVPQGTELSPSRPGGGSMQTEPARPSNFLSASSPLPASAKGQQPADVTGTALPRVGPVRPTGQDWNHTPQKTDHPSALLRDPPEPGSPRISSLRPQGLSNPSTLSAQPQLSRSHSSGSVLPLGELEGRRSTRDRRSPAEPEGGPASEGAARPLPRFNSVPLTDTGHERQSEGSFSPQLQESVFHLLVPSVILVLLAVGGLLFYRWRRRSHQEPQRADSPLEQPEGSPLTQDDRQVELPV
For B1, in the series with VentX, the “VentX expression during monocyte to macrophage differentiation” value is listed as “up-regulated”.
